Reference: PubChem BioAssay (NCI)
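The compound was tested at five concentrations on cells cultured in 96-well plates, with a 48-hour exposure period. The concentration for 50% growth inhibition is given as GI50. TGI marks complete inhibition of growth.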

Assays:
Experiment in all cases: NCI tumour cell line growth inhibition, 48 h
K-562 leukemia = test system: K-562 leukemia
SK-MEL-28 melanoma = test system: SK-MEL-28 melanoma
SNB-19 CNS = test system: SNB-19 CNS
UACC-62 melanoma = test system: UACC-62 melanoma
SW-620 colon = test system: SW-620 colon
LOX IMVI melanoma = test system: LOX IMVI melanoma
RPMI-8226 leukemia = test system: RPMI-8226 leukemia
NCI-H460 lung = test system: NCI-H460 lung
HOP-62 NSCLC = test system: HOP-62 NSCLC
MOLT-4 leukemia = test system: MOLT-4 leukemia
SK-MEL-2 melanoma = test system: SK-MEL-2 melanoma
UACC-257 melanoma = test system: UACC-257 melanoma
RXF 393 renal = test system: RXF 393 renal
OVCAR-3 ovarian = test system: OVCAR-3 ovarian
ACHN renal = test system: ACHN renal
NCI-H23 lung = test system: NCI-H23 lung
U251 CNS = test system: U251 CNS
A498 renal = test system: A498 renal
MCF7 breast = test system: MCF7 breast
NCI/ADR-RES ovarian = test system: NCI/ADR-RES ovarian
SK-MEL-5 melanoma = test system: SK-MEL-5 melanoma
OVCAR-8 ovarian = test system: OVCAR-8 ovarian
SK-OV-3 ovarian = test system: SK-OV-3 ovarian
COLO 205 colon = test system: COLO 205 colon
SF-295 CNS = test system: SF-295 CNS
MDA-MB-231 breast = test system: MDA-MB-231 breast
SNB-75 CNS = test system: SNB-75 CNS
HCT-116 colon = test system: HCT-116 colon
CCRF-CEM leukemia = test system: CCRF-CEM leukemia
NCI-H226 lung = test system: NCI-H226 lung
HS 578T breast = test system: HS 578T breast
UO-31 renal = test system: UO-31 renal
T-47D breast = test system: T-47D breast
SF-268 CNS = test system: SF-268 CNS
HOP-92 NSCLC = test system: HOP-92 NSCLC
IGROV1 ovarian = test system: IGROV1 ovarian
OVCAR-4 ovarian = test system: OVCAR-4 ovarian
SN12C renal = test system: SN12C renal
HCT-15 colon = test system: HCT-15 colon
786-0 renal = test system: 786-0 renal
DU-145 prostate = test system: DU-145 prostate
HL-60(TB) leukemia = test system: HL-60(TB) leukemia
SF-539 CNS = test system: SF-539 CNS
A549 NSCLC = test system: A549 NSCLC
HT29 colon = test system: HT29 colon
KM12 colon = test system: KM12 colon
EKVX NSCLC = test system: EKVX NSCLC
BT-549 breast = test system: BT-549 breast
MDA-MB-435 = test system: MDA-MB-435
OVCAR-5 ovarian = test system: OVCAR-5 ovarian
PC-3 prostate = test system: PC-3 prostate
SR leukemia = test system: SR leukemia
M14 melanoma = test system: M14 melanoma
CAKI-1 renal = test system: CAKI-1 renal
MALME-3M melanoma = test system: MALME-3M melanoma
TK-10 renal = test system: TK-10 renal

Which results are given for O=[N+]([O-])c1ccc(C(Br)c2ccc([N+](=O)[O-])cc2)cc1?
GI50 (K-562 leukemia): 3.12 µM; TGI (K-562 leukemia): 10.5 µM; GI50 (SK-MEL-28 melanoma): 16.6 µM; TGI (SK-MEL-28 melanoma): 30.5 µM; GI50 (SNB-19 CNS): 15 µM; TGI (SNB-19 CNS): 33.2 µM; GI50 (UACC-62 melanoma): 5.11 µM; TGI (UACC-62 melanoma): 22 µM; GI50 (SW-620 colon): 2.89 µM; TGI (SW-620 colon): 12 µM; GI50 (LOX IMVI melanoma): 1.65 µM; TGI (LOX IMVI melanoma): 3.23 µM; GI50 (RPMI-8226 leukemia): 2.35 µM; TGI (RPMI-8226 leukemia): 6.75 µM; GI50 (NCI-H460 lung): 16.3 µM; TGI (NCI-H460 lung): 40.2 µM; GI50 (HOP-62 NSCLC): 12.5 µM; TGI (HOP-62 NSCLC): 25.9 µM; GI50 (MOLT-4 leukemia): 2.56 µM; TGI (MOLT-4 leukemia): 6.15 µM; GI50 (SK-MEL-2 melanoma): 4 µM; TGI (SK-MEL-2 melanoma): 17.2 µM; GI50 (UACC-257 melanoma): 10.2 µM; TGI (UACC-257 melanoma): 24.1 µM; GI50 (RXF 393 renal): 12.9 µM; TGI (RXF 393 renal): 26.1 µM; GI50 (OVCAR-3 ovarian): 11.7 µM; TGI (OVCAR-3 ovarian): 24.3 µM; GI50 (ACHN renal): 11.6 µM; TGI (ACHN renal): 26.5 µM; GI50 (NCI-H23 lung): 2.12 µM; TGI (NCI-H23 lung): 7.14 µM; GI50 (U251 CNS): 2.31 µM; TGI (U251 CNS): 6.16 µM; GI50 (A498 renal): 6.06 µM; TGI (A498 renal): 23.5 µM; GI50 (MCF7 breast): 4.07 µM; TGI (MCF7 breast): 18.1 µM; GI50 (NCI/ADR-RES ovarian): 2.37 µM; TGI (NCI/ADR-RES ovarian): 6.82 µM; GI50 (SK-MEL-5 melanoma): 2.04 µM; TGI (SK-MEL-5 melanoma): 4.9 µM; GI50 (OVCAR-8 ovarian): 2.72 µM; TGI (OVCAR-8 ovarian): 8.4 µM; GI50 (SK-OV-3 ovarian): 11 µM; TGI (SK-OV-3 ovarian): 23 µM; GI50 (COLO 205 colon): 11.1 µM; TGI (COLO 205 colon): 24 µM; GI50 (SF-295 CNS): 13.9 µM; TGI (SF-295 CNS): 28.9 µM; GI50 (MDA-MB-231 breast): 9.54 µM; TGI (MDA-MB-231 breast): 25.2 µM; GI50 (SNB-75 CNS): 12.2 µM; TGI (SNB-75 CNS): 24.7 µM; GI50 (HCT-116 colon): 1.48 µM; TGI (HCT-116 colon): 4.06 µM; GI50 (CCRF-CEM leukemia): 2.11 µM; TGI (CCRF-CEM leukemia): 5.98 µM; GI50 (NCI-H226 lung): 5.29 µM; TGI (NCI-H226 lung): 23.7 µM; GI50 (HS 578T breast): 17.9 µM; TGI (HS 578T breast): 53.7 µM; GI50 (UO-31 renal): 1.68 µM; TGI (UO-31 renal): 5.34 µM; GI50 (T-47D breast): 1.69 µM; TGI (T-47D breast): 5.13 µM; GI50 (SF-268 CNS): 4.35 µM; TGI (SF-268 CNS): 17.7 µM; GI50 (HOP-92 NSCLC): 2.01 µM; TGI (HOP-92 NSCLC): 4.99 µM; GI50 (IGROV1 ovarian): 1.37 µM; TGI (IGROV1 ovarian): 3.17 µM; GI50 (OVCAR-4 ovarian): 2.02 µM; TGI (OVCAR-4 ovarian): 4.85 µM; GI50 (SN12C renal): 3.07 µM; TGI (SN12C renal): 11 µM; GI50 (HCT-15 colon): 1.67 µM; TGI (HCT-15 colon): 5.26 µM; GI50 (786-0 renal): 9.88 µM; TGI (786-0 renal): 26 µM; GI50 (DU-145 prostate): 15.1 µM; TGI (DU-145 prostate): 28.6 µM; GI50 (HL-60(TB) leukemia): 8.58 µM; TGI (HL-60(TB) leukemia): 25.6 µM; GI50 (SF-539 CNS): 15.1 µM; TGI (SF-539 CNS): 31.1 µM; GI50 (A549 NSCLC): 11.1 µM; TGI (A549 NSCLC): 26.5 µM; GI50 (HT29 colon): 1.63 µM; TGI (HT29 colon): 5.2 µM; GI50 (KM12 colon): 5.09 µM; TGI (KM12 colon): 18.4 µM; GI50 (EKVX NSCLC): 14 µM; TGI (EKVX NSCLC): 28.7 µM; GI50 (BT-549 breast): 15.8 µM; TGI (BT-549 breast): 30.7 µM; GI50 (MDA-MB-435): 3.44 µM; TGI (MDA-MB-435): 13.5 µM; GI50 (OVCAR-5 ovarian): 17 µM; TGI (OVCAR-5 ovarian): 34.3 µM; GI50 (PC-3 prostate): 3.34 µM; TGI (PC-3 prostate): 13.5 µM; GI50 (SR leukemia): 2.36 µM; TGI (SR leukemia): 6.73 µM; GI50 (M14 melanoma): 1.91 µM; TGI (M14 melanoma): 4.2 µM; GI50 (CAKI-1 renal): 2.11 µM; TGI (CAKI-1 renal): 4.91 µM; GI50 (MALME-3M melanoma): 2.06 µM; TGI (MALME-3M melanoma): 5.12 µM; GI50 (TK-10 renal): 3.01 µM; TGI (TK-10 renal): 10.4 µM
